{
  "source": "patent US20250354115A1",
  "about": "“METHOD FOR PRODUCING STEM CELLS AND METHOD FOR PRODUCING GAMMA DELTA T CELLS” (I Peace, Inc., priority 2022, published 2025)",
  "key": {"γδ T cell receptor (TCR)": {"test_system": "γδ T cell receptor (TCR)", "assay": "Stimulation of iPS-derived T cell progenitors through the γδ T cell receptor, flow cytometry (Example 5)", "type": "cell-based, human", "conditions": "day 35; HMBPP 0.01 μg/mL to 1 μg/mL or zoledronic acid 5 μmol/L; no marker expression without stimulants; FIG. 11", "method": "αMEM medium supplemented with a final concentration of 20% FBS and 1% penicillin/streptomycin was prepared as an OP9 cell culture medium.\nOP9 cell culture medium supplemented with a final concentration of 100 mmol/L vitamin C, 10 ng/ML IL-7, 10 μg/mL FLT3 ligand, and 10 μg/mL stem cell factor (SCF) was prepared as a differentiation induction medium.\nA dish on which OP9 cells were cultured was prepared as the feeder cells. The OP9 cells were cultured in the OP9 medium. Multiple cell clusters of iPS cells were seeded onto the feeder cells, and stem cell medium containing 10 μmol/L Y27632 was added. The cells were cultured for two days. On the second day, the medium was replaced with the OP9 medium supplemented with vitamin C, and the cells were cultured for an additional 12 days. On days 5, 9, and 13, half of the medium was removed from the dish and replaced with fresh OP9 medium supplemented with vitamin C.\nDuring the 14-day culture, the differentiation of iPS cells into hematopoietic progenitor cells was observed. The cells were confirmed to be positive for CD34 and CD43, which are markers of hematopoietic cells. […]\nIt was confirmed that CD3 and γδ TCR (Vγ9) were expressed on the surface of the cells. […] In the negative control, where no stimulants were added, no marker expression was detected."}, "[1]": {"test_system": "Human peripheral blood mononuclear cells", "assay": "iPS cell induction from mononuclear cells in PTA-containing medium (Example 1)", "type": "cell-based", "conditions": "IL-2 added daily", "method": "A PTA-containing medium according to Example 1 was prepared using RPMI 1640 medium (Gibco) containing […] of tetrakis-pivaloyloxymethyl-2-(thiazol-2-ylamino) ethylidene-1, 1-bisphosphonate (PTA, Techno Suzuta), 10% fetal bovine serum (Life Technologies), 1.0×10^−5 mol/L 2-mercaptoethanol (Nacalai Tesque), 100 U/mL penicillin, and 100 μg/mL streptomycin (Life Technologies).\nHuman peripheral blood mononuclear cells were added to the PTA-containing medium according to Example 1, and a medium containing approximately 1×10^6 mononuclear cells was placed into a 24-well plate (Day 1). […] On Day 3, the medium containing cells was collected from the plate, centrifuged, and the supernatant was removed. Then, 2 mL of fresh PTA-containing medium according to Example 1 was added to the cells, and 1 mL of the medium was placed into two wells of a 24-well plate.\nOn Day 6, the medium containing cells was collected from the plate, centrifuged, and the supernatant was removed. Then, the PTA-containing medium according to Example 1 was added to the cells, and a medium containing 2×10^4 mononuclear cells was placed into a 96-well plate. KLF4, OCT3/4, SOX2, and c-MYC were introduced into the cells using MSRV (Tokiwa Bio). […]\nAdditionally, genomic DNA was extracted from the iPS cells, and the presence of the recombined Vγ9 gene was analyzed by PCR and electrophoresis. […]"}},
  "data": [
    {"smiles": "C/C(=C\\COP(=O)(O)OP(=O)(O)O)CO", "note": "[HMBPP, (E)-4-hydroxy-3-methyl-but-2-enyl pyrophosphate]", "values": [
      {"measurement": "CD3 and γδ TCR (Vγ9) expression on the surface of the cells", "setting": "γδ T cell receptor (TCR)", "value": "expressed"}
    ]},
    {"smiles": "CC(C)(C)C(=O)OCOP(=O)(OCOC(=O)C(C)(C)C)C(CNc1nccs1)P(=O)(OCOC(=O)C(C)(C)C)OCOC(=O)C(C)(C)C", "note": "[PTA, tetrakis-pivaloyloxymethyl-2-(thiazol-2-ylamino) ethylidene-1,1-bisphosphonate]", "values": [
      {"measurement": "presence of the recombined Vγ9 gene in the iPS cells by PCR and electrophoresis", "setting": "[1]; FIG. 3", "value": "confirmed to possess a recombined Vγ9 gene with a JP gene"},
      {"measurement": "colonies of iPS cells on Day 14", "setting": "[1]; KLF4, OCT3/4, SOX2, c-MYC introduced using MSRV, MOI 5", "value": "multiple colonies"}
    ]}
  ]
}
